Assay [1] concerns RBL-2H3 cells. The assay can be described thus: total TNF protein level (ELISA), IgE/TNP-BSA activated mast cells. Format: cell-based, rat. Particulars: for total TNF level, normalized against DMSO: FIG. 19; for overall level of TNF (total TNF protein): 1 hour. On the procedure: (§1) Sub-confluent RBL-2H3 cells (85%) grown on a 6-well plate were sensitized with 0.5 μg/ml anti-TNP IgE (BD Biosciences) and activated by 25 ng/ml TNP^(26)-BSA (Santa-Cruz) in RPMI 1640 (Corning) containing 0.1% BSA as described. The supernatant (around 1 ml) was collected from resting (no exposure to IgE) and activated (IgE and TNP-BSA) cells respectively and centrifuged at 500 g for 5 min at 4° C. to clear any cell debris. In the meantime, the cells attached to the bottom of the 6-well plates were lysed in 1 ml of cell culture medium, RPMI 1640 containing 0.1% BSA and 0.5% Triton X-100 for 5 min at RT. The lysate was centrifuged at 15,000 g for 5 min at 4° C. to clear any Triton-insoluble biomass. The cleared supernatant or lysate was separated into 3 aliquots: 800 μl were lyophilized for TNF assay; 50 μl were stored at −20° C. for serotonin and histamine assays; and the rest was used immediately for β-hexosaminidase assay.
(§2) β-hexosaminidase activity and TNF protein level were measured as commonly used in the art. To quantify histamine with an Enzyme Immunoassay (EIA) kit (EA213/96; Eagle Biosciences), the supernatant and cell lysates were diluted 100-fold in RPMI. Fifty μl of the diluted samples were then subject to acylation reaction and ELISA by following the manufacturer's instructions. To measure the level of serotonin, the supernatant and cell lysates were diluted 1:625 fold with standard buffer (EA630/96; Eagle Biosciences), 20 μl of which were subject to acylation and subsequent ELISA according to the manufacturer's instructions.
RBL-2H3 cells and derivatives growing in 6-well plates were sensitized for 3 h with 0.5 μg/mL mouse anti-TNP ([…]) IgE (BD Pharmingen) and stimulated with 25 ng/mL of TNP(26)-BSA (Santa Cruz). β-hexosaminidase activities and TNF levels in the supernatant and the cell lysates were quantified as previously described. […]. Reverse transcription and PCRs RBL-2H3 cells (˜40% confluent) cultured in a 24-well plate were treated with 250 μL of 0.25% Trypsin-EDTA (Gibco) that was subsequently neutralized with 750 μL of complete medium. About […] were collected for RT-qPCR (quantitative PCR) using TaqMan Gene Expression Cells-to-CT Kit (ThermoFisher Scientific) according to the manufacturer's instructions. Fluorescently labeled, target-specific probes ((3-actin: Rn00667869_ml; TNFR1: Rn01492348_ml; and TNFR2: Rn00709830_ml) were purchased from Thermofisher Scientific. The Cq values of TNFRs were standardized against that of β-actin utilizing the Bio-Rad CFX Maestro software and then the relative levels of mRNA expression were determined. For electrophoresis, TNFR1 was amplified from cDNA (prepared with the same TaqMan Gene Expression Cells-to-CT Kit described earlier) using […]-3′ (SEQ ID NO: 11) and 5′-[…]-3′ (SEQ ID NO: 12) as forward and reverse primers, whereas TNFR2 was amplified using 5′-[…]-3′ (SEQ ID NO: 13) and 5′-[…]-3′ (SEQ ID NO: 14) as forward and reverse primers. PCR was conducted in a 20 μL mixture containing 1× One Taq Master Mix (NEB) and 200 nM of primers. Where specified, 1 μL of rat universal cDNA (BioChain) was used as positive control.

The test system of assay [2] is RBL-2H3 cells. The assay can be described thus: β-hexosaminidase secretion assay, IgE/TNP-BSA activated mast cells. Type of assay: cell-based, rat. Particulars: for β-hexosaminidase secretion (% of total activity in the supernatant), normalized against DMSO: inhibitor added to sensitized RBL-2H3 cells 30 min before TNP-BSA, FIG. 19. As for the experimental part: as §1, §2
(§3) The absolute value for the exocytosis of each mediator (V) was expressed as the percentage of the signal released into the supernatant (MS) relative to the total signal in the supernatant and in the lysate [V=MS/(MS+ML)%]. The value for IgE/allergen-dependent exocytosis was calculated by subtracting the value of the activated samples with the value of the resting samples (VE=VA−VR).
(§4) RBL-2H3 cells and derivatives growing in 6-well plates were sensitized for 3 h with 0.5 μg/mL mouse anti-TNP ([…]) IgE (BD Pharmingen) and stimulated with 25 ng/mL of TNP(26)-BSA (Santa Cruz). β-hexosaminidase activities and TNF levels in the supernatant and the cell lysates were quantified as previously described. […]. Reverse transcription and PCRs RBL-2H3 cells (˜40% confluent) cultured in a 24-well plate were treated with 250 μL of 0.25% Trypsin-EDTA (Gibco) that was subsequently neutralized with 750 μL of complete medium. About […] were collected for RT-qPCR (quantitative PCR) using TaqMan Gene Expression Cells-to-CT Kit (ThermoFisher Scientific) according to the manufacturer's instructions. […]

In assay [3] the test system is RBL-2H3 cells. In words: TNF secretion assay (ELISA), IgE/TNP-BSA activated mast cells. Format: cell-based, rat. Particulars: for TNF secretion (% of total TNF in the supernatant), normalized against DMSO: inhibitor added to sensitized RBL-2H3 cells 30 min before TNP-BSA, FIG. 19. On the procedure: as §1, §2, §3, §4
Assay [4] relates to activated mast cells. Particulars: reference [31]; cited from earlier work.
In assay [5] the test system is activated mast cells. Particulars: reference [31]; cited from earlier work. The source holds these as a separate data set.
The mark [6] stands for this setting: inhibitor added to sensitized RBL-2H3 cells 30 min before TNP-BSA.

“Also recorded” adds a separate entry of the source.

As for `CCOc1cc(C(=O)N2CCC(N3CCN(C)CC3)CC2)ccc1Nc1ncc2c(n1)N(S(C)(=O)=O)c1ccccc1C(=O)N2C` [AX-15836], the “reduction in total TNF level” value in assay [1] (inhibitor added to sensitized RBL-2H3 cells 30 min before TNP-BSA, statistically significant, FIG. 19B) turned out to be 10%.

As to `Cc1ccc(-n2nc(C(C)(C)C)cc2NC(=O)Nc2ccc(OCCN3CCOCC3)c3ccccc23)cc1` [Doramapimod/BIRB 796, Doramapimod], the “β-hexosaminidase secretion (% of total activity in the supernatant), normalized against DMSO” value in assay [2] is recorded as “did not seem to affect exocytosis”. Further, the “total TNF level, normalized against DMSO” value in assay [1] (setting [6]) is given as “did not seem to affect exocytosis or significantly reduce TNF proliferation”. Further, in assay [3], the “TNF secretion (% of total TNF in the supernatant), normalized against DMSO” value is recorded as “did not seem to affect exocytosis”.

In the case of `Cc1cc(NC(=O)c2cccc(NC(=O)/C=C/CN(C)C)c2)ccc1Nc1nccc(-c2cccnc2)n1` [JNK-IN-8], the “β-hexosaminidase secretion (% of total activity in the supernatant), normalized against DMSO” value in assay [2] is “without impacting”. The “total TNF level, normalized against DMSO” value in assay [1] (setting [6]) is “diminished TNF level drastically”. Moreover, the “TNF secretion (% of total TNF in the supernatant), normalized against DMSO” value in assay [3] is given as “without impacting”.

With `CC#CCOc1ccc(S(=O)(=O)CC(c2ccc(CNS(C)(=O)=O)cc2)N(O)C=O)cc1` (centres unmarked) [KP-457], in assay [2] (sensitized RBL-2H3 cells, inhibitor added along with TNP-BSA, concentrations between 0.3 M and 10 μM, 1 hour, FIG. 18A), the “exocytosis of β-hexosaminidase” value is “did not seem to affect”. Also, the “overall level of TNF (total TNF protein)” value in assay [1] (allergen-triggered RBL-2H3 cells, inhibitor added along with TNP-BSA, FIG. 18C) is “inhibited the overall level of TNF; also recorded: TNF production is diminished”. Also, the “amount of sTNF protein released into the supernatant” value in assay [3] (sensitized RBL-2H3 cells, inhibitor added along with TNP-BSA, concentrations between 0.3 M and 10 μM, 1 hour, FIG. 18B) was “significantly reduced”.

For `Cn1nccc1Nc1nccc(-c2ccn([C@H](CO)c3ccc(Cl)c(F)c3)c(=O)c2)n1` [Ravoxertinib/GDC-0994, Ravoxertinib], the “β-hexosaminidase secretion (% of total activity in the supernatant), normalized against DMSO” value in assay [2] is listed as “inhibited”. Further, the “total TNF level, normalized against DMSO” value in assay [1] (setting [6]) is listed as “inhibited”. For the same molecule, the “TNF secretion (% of total TNF in the supernatant), normalized against DMSO” value in assay [3] is reported as “inhibited”.

In the case of `CN(C)CCC=C1c2ccccc2CCc2ccccc21` [amitriptyline], the serotonin release result in assay [4] is recorded as “without any influence”. The histamine release entry in assay [5] was “specifically inhibit”.

B1: sTNFR1: soluble TNF receptor 1 (Genscript), sequesters secreted TNF (protein, UniProt P19438 30-211, looked up)
extracellular domain: LVPHLGDREKRDSVCPQGKYIHPQNNSICCTKCHKGTYLYNDCPGPGQDTDCRECESGSFTASENHLRHCLSCSKCRKEMGQVEISSCTVDRDTVCGCRKNQYRHYWSENLFQCFNCSLCLNGTVHLSCQEKQNTVCTCHAGFFLRENECVSCSNCKKSLECTKLCLPQIENVKGTEDSGTT
modifications: extracellular domain
For B1, the “overall level of TNF (total TNF protein)” value in assay [1] (sensitized RBL-2H3 cells incubated with sTNFR1 along with TNP-BSA, FIG. 17A) is reported as “inhibited the overall level of TNF in a concentration dependent fashion”; in assay [1] (sensitized RBL-2H3 cells incubated with sTNFR1 along with TNP-BSA, FIG. 17A, listed as soluble TNFR1), “inhibits antigen-elicited TNF production in a dosage-dependent fashion”.
